Inconclusive results are not listed. The source made the active and inactive calls.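 The calls were made as follows: active = compounds lowering the luciferase signal with a fitted half-maximal dose at most twice their top valid dose (cut at about 30 µM in these data); inconclusive = flat fits with moderate signal loss, or poor fits; inactive = the rest.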
These compounds were tested on Clone20 osteoblast Shn3 3'UTR firefly luciferase, 24 h (assay: Schnurri-3 3'UTR-luciferase signal suppressors – cell-based, Clone20 osteoblasts, luminescence, dry powder, set 2, dose response (AID 743417)).
`Cc1ccc2nc(-c3cccc(SC4CCCCC4)c3)c(NCc3ccccc3)n2c1` gave an AC50 of 3.53 µM. With `CCCCNc1c(-c2cccc(-c3ccc(OC)cc3)c2)nc2cc(C)ccn12` the AC50 was 12 µM. `CCCNc1nc2c(c(=O)n(C)c(=O)n2C)n1Cc1cccc(C)c1` was tested, and the AC50 was 1.91 µM. Work on `C=C1C(=O)[C@]23C[C@H]1CC[C@H]2[C@]1(C)[C@@H](OC(C)=O)CC[C@@](C)(C(=O)OC)[C@H]1C[C@@H]3OC(C)=O` yielded an AC50 of 5.99 µM. `CN1CCN(c2ccc(-c3ccc4ccccc4n3)cc2)CC1` gave an AC50 of 2.73 µM. For `COc1cccc(CNc2nc(NCC3CC3)nc3ccsc23)c1`, the AC50 was 5.86 µM. For `O=C(CSc1nnc(Cn2nnc3ccccc32)o1)N(Cc1ccc(Cl)cc1)c1ccccc1`, the AC50 was 2.29 µM. `CC(C)C[C@@H](CO)N(Cc1ccccc1)S(=O)(=O)N(Cc1ccccc1)[C@H](CO)CC(C)C` gave an AC50 of 10.1 µM. With `Cc1ccc(C)c(S(=O)(=O)N2CCN(Cc3ccc(O)c4ncccc34)CC2)c1` the AC50 was 2.84 µM. `CCCC(=O)NC(c1ccc(Cl)cc1Cl)c1ccc2cccnc2c1O` (centres undefined) gave an AC50 of 0.638 µM. `Cc1cccc(C)c1NC(=O)CN(C)C(=O)c1cccc(S(=O)(=O)N2CCN(c3ccc(F)cc3)CC2)c1` showed an AC50 of 2.2 µM. Compound `Cc1ccc(C)c(N2CCN(S(=O)(=O)c3ccc4[nH]c(=O)ccc4c3)CC2)c1` has an AC50 of 24.2 µM. `COCCn1c(C)cc(C2=NNC(=NC3CC3)SC2)c1C` showed an AC50 of under 0.26 µM. With `O=C(Nc1ccc(N2CCOCC2)cc1)c1ccc(Cl)c(S(=O)(=O)N2CCCC2)c1` the AC50 was 2.17 µM. With `Cc1nc2c(OCc3ccc(Cl)cc3Cl)cccn2c1N(C)CC1CC1` the AC50 was 10 µM. Work on `CCCCC(=O)NC(c1ccc(N(CC)CC)cc1)c1ccc2cccnc2c1O` (centres undefined) yielded an AC50 of 1.12 µM. With `COC(=O)C1CN(C#N)N(c2ccc(Cl)cc2)C12c1ccccc1-c1ccccc12` (centres undefined) the AC50 was under 0.26 µM. Compound `COc1cccc(C2CC(c3ccc(C)cc3)=NN2C(=O)c2ccccc2F)c1OC` (centres undefined) has an AC50 of 36 µM. In the case of `Cc1ccc(-c2nc3cccnc3o2)cc1NC(=O)COc1ccc(C(C)(C)C)cc1`, the AC50 is reported as 10.8 µM. With `C[C@H]1CN=C(N(C)C)N1CC1CCC(C(C)(C)C)CC1` (some centres undefined) the AC50 was 2.27 µM. Work on `CC(=O)c1c(C)[nH]c(C(=O)OCC(=O)Nc2ccc(Cl)cc2[N+](=O)[O-])c1C` yielded an AC50 of 0.325 µM. `O=C(Nc1nc(-c2ccccn2)cs1)c1cccc(-n2cnnn2)c1` showed an AC50 of 2.58 µM. In the case of `Cc1cc2nc(C)n(CCCNC(=O)Nc3cccc4ccccc34)c2cc1C`, the AC50 is reported as 3.19 µM. `Cc1ccc(C(=O)N2c3ccccc3N(Cc3ccccc3)C(=O)C2(C)C)cc1` showed an AC50 of 6.92 µM. In the case of `Cc1ccc(C)c(S(=O)(=O)N2CCN(C(=O)C3CCN(c4ncnc5sc(C)c(C)c45)CC3)CC2)c1`, the AC50 is reported as 2.82 µM. For `Nc1ncnc2c1c(-c1ccc(Oc3ccccc3)cc1)cn2C1CCCC1`, the AC50 was 0.658 µM. `COc1cc(C)c(C(=O)CC(=O)c2c(C)cc(OC)cc2C)c(C)c1` was tested, and the AC50 was 7.4 µM. `Cc1cc(S(=O)(=O)NCc2ccncc2)c(C)cc1Br` was tested, and the AC50 was 1.23 µM. For `COCCN(CC(=O)NC1CCCCC1)C(=O)/C=C/C(=O)c1ccc(OC)cc1O`, the AC50 was 2.58 µM. `Cc1ccc(S(=O)(=O)Nc2ccc3ncccc3c2)cc1` gave an AC50 of 2.2 µM. In the case of `N#CC(c1cccc(Cl)c1)c1ccc2c(C(F)(F)F)cc(C(F)(F)F)nc2n1` (centres undefined), the AC50 is reported as 0.689 µM. For `O=C(O)c1cccc(COc2ccc(CO)cc2Cl)c1`, the AC50 was 1.04 µM. `CC(=O)NC(c1cccc([N+](=O)[O-])c1)c1ccc2cccnc2c1O` (centres undefined) gave an AC50 of 0.889 µM. Compound `O=C(CSc1n[nH]c(-c2ccccn2)n1)Nc1cccc(Cl)c1` has an AC50 of 2.9 µM. `Cc1cccc(C(C)(C)C)c1OCCN1CCCC1` gave an AC50 of 34.2 µM. `Cc1cc(C)c(C)c(S(=O)(=O)N2CCN(c3ncnc4ccccc34)CC2)c1C` was tested, and the AC50 was 1.46 µM. `COc1ccc(C2/C=C\CN(C(=O)c3ccc(C)cc3)[C@H](Cc3ccccc3)C(=O)N2Cc2ccc(F)cc2)cc1` (some centres undefined) gave an AC50 of 0.772 µM. `CC(=O)OCCCNc1cc(Sc2nc3ccccc3s2)c2nonc2c1[N+](=O)[O-]` was tested, and the AC50 was 4.7 µM. In the case of `Cc1cc(NC(c2ccc(Cl)cc2)c2ccc3cccnc3c2O)no1` (centres undefined), the AC50 is reported as 1.05 µM. In the case of `Cc1cccc(C(=O)Nc2ccc(C(=O)/C=C/c3cccnc3)cc2)c1`, the AC50 is reported as 6.23 µM. Work on `Cc1ccccc1CN1CC2=C(CCN(Cc3ccccc3)C2=O)N2CCN=C12` yielded an AC50 of 2.41 µM. `COc1ccc(NS(=O)(=O)c2ccc3ccccc3c2)c2ncccc12` was tested, and the AC50 was 4.82 µM. With `COc1ccc(-c2cc(N)n(S(=O)(=O)c3c(F)c(F)c(F)c(F)c3F)n2)cc1OC` the AC50 was 0.896 µM. Compound `Cc1ccc([C@@H]2CC(=O)[C@@H]3CN(S(=O)(=O)c4ccccc4C)[C@H](c4ccc(Cl)cc4)C[C@@H]3N2S(=O)(=O)c2ccc(C)cc2)cc1` has an AC50 of 0.361 µM. For `O=C(CCN1CCc2ccccc2C(O)(c2ccccc2)C1)c1ccc2c(c1)OCCO2` (centres undefined), the AC50 was 23.1 µM. `NC(=O)CC(NC(=O)c1ccc(Br)cc1)c1ccc(N2CCCCCC2)c([N+](=O)[O-])c1` (centres undefined) gave an AC50 of 7.66 µM. `CCSc1nnc(NC(=O)c2nc(S(=O)(=O)Cc3ccc(F)cc3)ncc2Cl)s1` showed an AC50 of 4.96 µM. In the case of `C[C@@H]1CN([C@@H](C)CO)C(=O)c2cc(NC(=O)Nc3ccc(F)cc3)ccc2O[C@@H]1CN(C)Cc1ccc(Oc2ccccc2)cc1`, the AC50 is reported as 9.38 µM. In the case of `CCOc1cc(C(=O)CSc2nnc(CNc3ccc(Cl)cc3)o2)ccc1NC(=O)CC`, the AC50 is reported as 7.73 µM. Compound `CC(C)c1ccc(NC(=O)Nc2nc(C(N)CCc3ccccc3)cs2)cc1` (centres undefined) has an AC50 of 5.36 µM. `CCOC(=O)c1c2c(n(C)c1C)C(=O)C(=O)c1ccc(Br)cc1-2` was tested, and the AC50 was 1.01 µM. Compound `Cc1ccc(CS(=O)(=O)c2ncc(Cl)c(C(=O)Nc3ccc(OC(F)F)cc3)n2)cc1` has an AC50 of 2.34 µM. `O=[N+]([O-])c1cc2c(c(CSc3nnc(Nc4ccccc4)s3)c1)OCOC2` showed an AC50 of 3.62 µM. Compound `Nc1nc(N)c2cc(Sc3cccc(C(F)(F)F)c3)ccc2n1` has an AC50 of 4.87 µM. Compound `Cc1sc2ncnc(N3CCN(S(=O)(=O)c4ccccc4)CC3)c2c1C` has an AC50 of 2.3 µM. Compound `NC(=O)CC(NC(=O)c1ccccc1)c1ccc(N2CCC(Cc3ccccc3)CC2)c([N+](=O)[O-])c1` (centres undefined) has an AC50 of 2.61 µM. `CCOC(=O)c1c(C)[nH]c(C)c1C(=O)CSc1nc2ccccc2c(=O)n1-c1ccc(CC)cc1` showed an AC50 of 5.36 µM. `O=C1CSc2ccc(C(=O)Nc3cccc(S(=O)(=O)Nc4ccc(Br)cc4)c3)cc2N1` was tested, and the AC50 was 3.08 µM. `NS(=O)(=O)c1ccc(CCNCc2cc(Br)ccc2OCc2ccccc2F)cc1` gave an AC50 of 4.65 µM. In the case of `CCOc1cc(CNCc2ccccc2)ccc1OCc1ccc(Cl)cc1`, the AC50 is reported as 6.69 µM. `Cc1cccc(N2CCN(C(=S)Nc3ccc4nc(N5CCN(C)CC5)cc(C)c4c3)CC2)c1C` gave an AC50 of 5.45 µM. `O=C(Nc1ccc(S(=O)(=O)N2CCN(Cc3ccccc3)CC2)cc1)c1cnccn1` gave an AC50 of 1.65 µM. `CCCCCCCCNC(C)C(O)c1ccc(SC(C)C)cc1` (centres undefined) showed an AC50 of 3.94 µM. With `S=C(NCCc1ccccc1)Nc1cccc2cnccc12` the AC50 was 0.922 µM. For `CC(=O)c1c(C)[nH]c(C(=O)COc2cc(C)ccc2C(C)C)c1C`, the AC50 was 1.25 µM. `O=C(NCc1ccccc1)c1nc(S(=O)(=O)Cc2ccccc2)ncc1Cl` showed an AC50 of 1.19 µM. `O=c1oc2ccccc2c(Cl)c1CN1CCCCC1` showed an AC50 of 4.99 µM. In the case of `Cc1cc2c(cc(C(=O)N3CCC(C(=O)NC4CCCC4)CC3)n2Cc2c(F)cccc2Cl)o1`, the AC50 is reported as 4.81 µM. In the case of `C=CCn1nc([N+](=O)[O-])nc1Sc1cccc2cccnc12`, the AC50 is reported as 10.7 µM. For `CC(C)CCC(C(=O)O)C(C)CC(=O)NNC(=O)c1ccco1` (centres undefined), the AC50 was > 70 µM (inactive). Compound `CCc1nnc(NC(=O)c2nc(S(=O)(=O)Cc3ccc(C)cc3)ncc2Cl)s1` has an AC50 of 3.01 µM. `C=C1C(=O)OC2C=C(CO)C3OC3C3OC3(C)CC(OC(=O)/C(=C/C)COC(C)=O)C12` (centres undefined) showed an AC50 of 5.89 µM. `NC(=O)c1ccc(N2CCN(S(=O)(=O)c3cccs3)CC2)c([N+](=O)[O-])c1` showed an AC50 of 0.305 µM. With `Cc1ccc(S(=O)(=O)N2CCc3ccccc3CC2)cc1` the AC50 was 3.29 µM.

Source: PubChem BioAssay AID743417 (Broad Institute, 2014)
